{"source": "patent US6426087B1", "about": "“Orally administrable immediate-release and prolonged-release galenic form comprising an absorption-promoting agent and use of this absorption-promoting agent” (Merck Patent Gesellschaft mit, priority 1998, dated 2002)", "key": {"Caco-2 line": {"test_system": "Caco-2 line", "experiment": "Permeability of carbon 14-labelled acamprosate with promoting agents in the Caco-2 cellular model (diffusion chamber)", "type": "in vitro ADME, human", "conditions": "Papp of acamprosate", "source_text": "(§1) Actions of various promoting agents or mixtures of promoting agents on the permeability of calcium acetylhomotaurinate, in the Caco-2 cellular model.\n(§2) A solution of carbon 14-labelled acamprosate, of known concentration, is placed in the apical compartment of a Grass Sweetana-type diffusion chamber which comprises a second so-called basolateral compartment separated from the first by an insert supporting a monocellular confluent culture of human colon adenocarcinoma […] epithelial cells, Caco-2 line.\n(§3) Samples are collected at regular intervals from the second basolateral compartment. The acamprosate concentration is determined by […]. A simple calculation makes it possible to obtain the apparent permeability coefficient (Papp). The acamprosate solution is supplemented with various promoting agents or mixtures of promoting agents, under varying conditions. The influence of these agents on the apparent permeability coefficient (Papp) was measured. The experimental results are grouped together in the following table where the apparent permeability coefficient values (Papp) are expressed in cm/s."}, "[1]": {"experiment": "Permeability of carbon 14-labelled acamprosate with promoting agents in the Caco-2 cellular model (diffusion chamber)", "type": "in vitro ADME, human", "conditions": "human, Caco-2; acamprosate solution, promoting agent: None; apical to basolateral; read-out: Papp, Mean (n = 6)", "source_text": "as §1, §2, §3"}}, "data": [{"smiles": "CCCCCCCCCC(=O)O", "note": "[Capric]", "values": [{"measurement": "Papp, Mean (n = 6)", "setting": "Caco-2 line; promoting agent Conc. 0.25 % m/v", "value": "63.6 10^−7 cm/s"}]}, {"smiles": "CC(=O)NCCCS(=O)(=O)O", "note": "[acamprosate, calcium 3-acetylamino-1-propanesulphonate, reference compound]", "values": [{"measurement": "Papp A→B", "setting": "[1]", "value": 2.4, "unit": "×10⁻⁶ cm/s"}]}, {"smiles": "C[C@H](CCC(=O)NCC(=O)[O-])[C@H]1CC[C@H]2[C@@H]3[C@H](O)C[C@@H]4C[C@H](O)CC[C@]4(C)[C@H]3C[C@H](O)[C@]12C.[Na+]", "note": "[Na glycocholate, sodium glycocholate]", "values": [{"measurement": "Papp, Mean (n = 6)", "setting": "Caco-2 line; promoting agent Conc. 0.2 % m/v", "value": "114 10^−7 cm/s"}]}]}
